From patent US5432200A, “Method for increasing urinary excretion of electrolytes” (priority 1993, dated 1995)
Structures can show the parent of a compound that is named as a salt.

Assays:
[1] = cited from earlier work
[2] = Bioavailability of potassium, magnesium and citrate in normal subjects: cumulative increment in urinary excretion after single oral dose (Example 7); conditions: urine 24 hours
Experimental: (§1) The study was performed with three normal subjects.
(§2) The subject underwent three phases of study. […] Urine was collected at frequent intervals for 24 hours after oral ingestion of each salt (at 8 a.m.).
(§3) Potassium bioavailability from potassium magnesium citrate was compared with that of potassium citrate. At each time period, the difference in urinary potassium following ingestion of potassium magnesium citrate (containing 49 meq potassium) or potassium citrate (containing 50 meq potassium) from that obtained at a corresponding time period following taking magnesium citrate (no potassium; therefore serving as control).
(§4) Magnesium bioavailability from potassium magnesium citrate was compared with that of magnesium citrate.
(§5) Citrate bioavailability from potassium magnesium citrate was compared with that of potassium citrate and magnesium citrate.

[3] = Physiological effects: urinary composition in two patients, five phases of study (Example 8, Table 1); type: in vivo, human (patients); conditions: for Urinary Ca / Urinary pH / Urinary Oxalate / Urinary K / Urinary Mg / Urinary Na / Urinary Citrate: mean of two patients, tablets/d: KCl 7, K citrate 10, Mg citrate 2.5, K-Mg citrate 7; for Urinary pH: placebo 6.26; for Urinary Oxalate: placebo 27; for Urinary K: placebo 31; for Urinary Mg: placebo 64; for Urinary Na: placebo 95; for Urinary Citrate: placebo 498
[4] = in vivo; cited from earlier work
[5] = tested on: hypercalciuric nephrolithiasis; conditions: cited from earlier work
[6] = human, in vivo, po
Experimental: as §1, §2, §3, §4, §5

nephrolithiasis = conditions: cited from earlier work
[7] = hypercalciuric patients with nephrolithiasis treated with thiazide

O=C(O)CC(O)(CC(=O)O)C(=O)O [magnesium citrate]
magnesiuric and citraturic effect compared with magnesium oxide ([1]; magnesium salts provided in small divided doses): equivalent magnesiuric and citraturic effect as magnesium oxide | absorbability compared with magnesium oxide ([1]; vs magnesium oxide): more soluble and absorbable than magnesium oxide | cumulative increment in urinary magnesium (magnesium bioavailability or absorption) ([2]; 24.5 meq Mg (potassium magnesium citrate) vs 25 meq Mg (magnesium citrate), potassium citrate phase as control, FIG. 3): equivalent magnesium bioavailability between the two preparations | Urinary Ca ([3]; listed as Magnesium Citrate): 137 mg/day | Urinary pH ([3]; listed as Magnesium Citrate): 6.13 | Urinary Oxalate ([3]; listed as Magnesium Citrate): 23 mg/day | Urinary K ([3]; listed as Magnesium Citrate): 38 meq/d | Urinary Mg ([3]; listed as Magnesium Citrate): 113 mg/day | Urinary Na ([3]; listed as Magnesium Citrate): 82 meq/d | Urinary Citrate ([3]; listed as Magnesium Citrate): 718 mg/day

[Cl-].[K+] [potassium chloride]
side effects [4]: arrhythmia and diarrhea | Urinary Ca [3]: 103 mg/day | Urinary pH [3]: 5.84 | Urinary Oxalate [3]: 27 mg/day | Urinary K [3]: 90 meq/d | Urinary Mg [3]: 73 mg/day | Urinary Na [3]: 81 meq/d | Urinary Citrate [3]: 636 mg/day

O=C(O)CC(O)(CC(=O)O)C(=O)O [potassium citrate]
cumulative increment in urinary potassium (potassium bioavailability) ([2]; 49 meq K (potassium magnesium citrate) vs 50 meq K (potassium citrate), magnesium citrate phase as control, FIG. 2): equivalent between the two preparations | Urinary Ca ([3]; listed as Potassium Citrate): 86 mg/day | Urinary pH ([3]; listed as Potassium Citrate): 6.93 | Urinary Oxalate ([3]; listed as Potassium Citrate): 27 mg/day | Urinary K ([3]; listed as Potassium Citrate): 80 meq/d | Urinary Mg ([3]; listed as Potassium Citrate): 69 mg/day | Urinary Na ([3]; listed as Potassium Citrate): 91 meq/d | Urinary Citrate ([3]; listed as Potassium Citrate): 821 mg/day | citrate excretion [5, 7]: augments citrate excretion | effect on thiazide-induced hypokalemia [5, 7]: averts the development of hypokalemia | recurrent stone formation ([5]; patients who have relapsed on thiazide therapy): prevents recurrent stone formation | effect on thiazide-induced magnesium depletion ([5]; potassium citrate therapy): does not avert thiazide-induced magnesium depletion

O=C([O-])CC(O)(CC(=O)[O-])C(=O)[O-].O=C([O-])CC(O)(CC(=O)[O-])C(=O)[O-].[K+].[K+].[K+].[K+].[Mg+2] [potassium magnesium citrate, tetrapotassium monomagnesium dicitrate]
cumulative increment in urinary citrate (citrate bioavailability) [6]: much higher for potassium magnesium citrate than for the other two preparations | Urinary Ca [3]: 106 mg/day | Urinary pH [3]: 6.94 | Urinary Oxalate [3]: 23 mg/day | Urinary K [3]: 73 meq/d | Urinary Mg [3]: 116 mg/day | Urinary Na [3]: 92 meq/d | Urinary Citrate [3]: 968 mg/day | urinary pH and citrate compared to magnesium citrate ([3]; vs magnesium citrate): higher values for urinary pH and citrate | urinary calcium and oxalate compared to placebo ([3]; vs placebo): lower values for urinary calcium and oxalate | urinary pH, magnesium, potassium and citrate compared to placebo ([3]; vs placebo): higher values for urinary pH, magnesium, potassium and citrate | urinary pH, magnesium and citrate compared to potassium chloride ([3]; vs potassium chloride): higher urinary pH, magnesium, and citrate | citrate and magnesium excretion compared to potassium citrate ([3]; vs potassium citrate): greater citrate excretion as well as enhanced magnesium excretion

NS(=O)(=O)c1cc2c(cc1Cl)NCNS2(=O)=O [thiazide]
potassium and magnesium depletion (nephrolithiasis; thiazide therapy, by provoking renal loss of potassium and magnesium): may cause hypokalemia and magnesium depletion | relapse rate (nephrolithiasis; use of thiazide alone): 37.5-57.1%
